Several values for one entry are separate records, joined by “and”; a condition that tells them apart may be missing. Identical values can stand only once.
What was measured:
Experiment in all cases: KINOMEscan select kinase screen
Assay type in all cases: binding
ERK4 = ERK4 (Homo sapiens, UniProt P31152); conditions: two experiments
Procedure: (§1) Kinase Assays. The kinase inhibition assays were conducted by DiscoverX on a platform assay by Ambit BioSciences as described previously 16,17. FKK6 was screened at a single concentration of 10 μM in duplicate. The scanMAXSM assay panel measures 468 kinases
(§2) (https://www.discoverx.com/services/drug-discovery-development-services/kinase-profiling/kinomescan/scanmax). The assays measure a compound’s ability to inhibit binding of a canonical ligand substrate, with 0% activity of control corresponding to full inhibition and 100% activity of control to no inhibition. […]
(§3) quantitative measure of compound selectivity based on the number of kinase hits (enzymes inhibited) divided by the total number of distinct kinases tested. Three different activity cut-offs were analyzed – […]
(§4) ; and S(1) or % activity of control
(§5) < 1. To illustrate effect or lack of effect, an image of the entire family of kinases tested were grouped by families and S(35). The TREEspot Kinase dendrogram image was generated using TREEspot™ Software Tool and reprinted with permission from KINOME scan®, a division of DiscoveRx […]

IKK-alpha = target: T1, IKK-alpha (Homo sapiens, UniProt O15111); conditions: two experiments
T1 sequence (O15111 1-745): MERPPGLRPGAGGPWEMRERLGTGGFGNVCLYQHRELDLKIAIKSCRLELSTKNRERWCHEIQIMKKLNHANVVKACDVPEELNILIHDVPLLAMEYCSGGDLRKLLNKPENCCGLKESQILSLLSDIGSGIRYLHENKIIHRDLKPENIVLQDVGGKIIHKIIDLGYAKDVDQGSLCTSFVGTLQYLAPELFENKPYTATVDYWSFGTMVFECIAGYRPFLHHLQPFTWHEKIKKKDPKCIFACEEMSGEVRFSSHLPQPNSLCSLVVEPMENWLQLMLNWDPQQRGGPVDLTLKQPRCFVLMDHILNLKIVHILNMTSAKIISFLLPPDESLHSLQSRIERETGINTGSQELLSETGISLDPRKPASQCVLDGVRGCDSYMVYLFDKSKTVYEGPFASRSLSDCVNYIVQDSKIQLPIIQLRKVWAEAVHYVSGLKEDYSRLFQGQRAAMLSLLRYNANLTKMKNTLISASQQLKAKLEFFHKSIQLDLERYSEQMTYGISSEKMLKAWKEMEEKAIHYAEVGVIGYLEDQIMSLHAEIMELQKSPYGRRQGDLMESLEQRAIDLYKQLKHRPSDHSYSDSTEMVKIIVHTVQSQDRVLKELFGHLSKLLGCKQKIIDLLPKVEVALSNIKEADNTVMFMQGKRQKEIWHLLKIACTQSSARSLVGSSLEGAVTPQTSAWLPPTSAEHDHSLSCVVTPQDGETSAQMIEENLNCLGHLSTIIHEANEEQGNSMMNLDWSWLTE
Procedure: as §1, §2, §3, §4, §5

ERK3 = ERK3 (Homo sapiens, UniProt Q16659); conditions: two experiments
ERK3, sequence (Q16659 whole entry): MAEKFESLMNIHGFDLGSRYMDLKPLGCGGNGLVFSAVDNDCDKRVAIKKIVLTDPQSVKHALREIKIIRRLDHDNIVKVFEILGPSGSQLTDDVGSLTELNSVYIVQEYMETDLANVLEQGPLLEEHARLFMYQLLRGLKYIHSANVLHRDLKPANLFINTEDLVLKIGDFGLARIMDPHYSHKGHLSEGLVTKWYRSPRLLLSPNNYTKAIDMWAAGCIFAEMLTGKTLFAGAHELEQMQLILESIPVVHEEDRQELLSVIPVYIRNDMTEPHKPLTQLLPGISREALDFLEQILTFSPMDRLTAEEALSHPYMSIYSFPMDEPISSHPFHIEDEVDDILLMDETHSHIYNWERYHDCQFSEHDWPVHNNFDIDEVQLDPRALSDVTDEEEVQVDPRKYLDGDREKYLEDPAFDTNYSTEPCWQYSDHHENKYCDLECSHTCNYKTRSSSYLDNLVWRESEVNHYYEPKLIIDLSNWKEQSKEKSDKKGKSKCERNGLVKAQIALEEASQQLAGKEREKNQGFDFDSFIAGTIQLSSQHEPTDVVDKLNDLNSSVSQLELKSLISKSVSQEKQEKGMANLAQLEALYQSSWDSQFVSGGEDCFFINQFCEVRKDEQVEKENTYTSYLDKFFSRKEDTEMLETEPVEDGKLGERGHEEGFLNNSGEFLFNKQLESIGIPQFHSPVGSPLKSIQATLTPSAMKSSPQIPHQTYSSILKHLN
Procedure: as §1, §2, §3, §4, §5

ERK2 = ERK2 (Homo sapiens, UniProt P28482); conditions: two experiments
ERK2, sequence (P28482 whole entry): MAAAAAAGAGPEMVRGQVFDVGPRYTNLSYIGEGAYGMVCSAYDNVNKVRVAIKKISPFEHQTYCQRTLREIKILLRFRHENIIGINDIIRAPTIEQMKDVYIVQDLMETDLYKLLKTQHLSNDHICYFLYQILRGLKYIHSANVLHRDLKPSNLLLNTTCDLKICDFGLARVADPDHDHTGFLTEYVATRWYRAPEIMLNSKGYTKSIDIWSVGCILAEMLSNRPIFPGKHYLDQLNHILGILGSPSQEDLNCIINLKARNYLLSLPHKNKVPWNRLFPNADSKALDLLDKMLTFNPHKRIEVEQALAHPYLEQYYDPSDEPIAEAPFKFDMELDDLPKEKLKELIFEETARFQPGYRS
Procedure: as §1, §2, §3, §4, §5

GSK3B = GSK3B (Homo sapiens, UniProt P49841); conditions: two experiments
GSK3B, sequence (P49841 whole entry): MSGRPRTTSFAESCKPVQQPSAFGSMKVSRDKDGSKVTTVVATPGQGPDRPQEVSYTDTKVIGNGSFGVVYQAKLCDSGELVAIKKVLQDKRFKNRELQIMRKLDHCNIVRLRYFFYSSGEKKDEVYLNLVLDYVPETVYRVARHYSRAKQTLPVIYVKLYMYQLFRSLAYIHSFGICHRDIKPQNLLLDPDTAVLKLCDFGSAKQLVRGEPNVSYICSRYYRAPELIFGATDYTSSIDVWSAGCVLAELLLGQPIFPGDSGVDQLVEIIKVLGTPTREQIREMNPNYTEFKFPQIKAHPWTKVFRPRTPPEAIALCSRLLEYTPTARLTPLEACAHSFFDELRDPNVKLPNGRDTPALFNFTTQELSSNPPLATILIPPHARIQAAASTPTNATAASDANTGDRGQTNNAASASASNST
Procedure: as §1, §2, §3, §4, §5

CDK2 = CDK2 (Homo sapiens, UniProt P24941); conditions: two experiments
Procedure: as §1, §2, §3, §4, §5

GSK3A = GSK3A (Homo sapiens, UniProt P49840); conditions: two experiments
GSK3A, sequence (P49840 whole entry): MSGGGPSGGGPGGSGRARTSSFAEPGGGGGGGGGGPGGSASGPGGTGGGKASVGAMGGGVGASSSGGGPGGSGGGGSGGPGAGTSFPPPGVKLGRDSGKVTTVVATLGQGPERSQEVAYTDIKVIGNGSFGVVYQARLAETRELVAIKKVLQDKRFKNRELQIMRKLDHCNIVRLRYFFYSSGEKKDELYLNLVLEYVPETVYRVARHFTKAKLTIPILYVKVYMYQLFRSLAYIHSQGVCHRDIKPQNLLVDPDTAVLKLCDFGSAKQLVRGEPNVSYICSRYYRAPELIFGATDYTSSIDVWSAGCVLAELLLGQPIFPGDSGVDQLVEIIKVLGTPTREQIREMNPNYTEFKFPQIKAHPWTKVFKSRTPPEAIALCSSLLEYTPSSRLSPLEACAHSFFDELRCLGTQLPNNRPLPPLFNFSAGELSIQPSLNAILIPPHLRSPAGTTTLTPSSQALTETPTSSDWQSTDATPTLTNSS
Procedure: as §1, §2, §3, §4, §5

CDK4 = CDK4 (Homo sapiens, UniProt P11802); conditions: two experiments
CDK4, sequence (P11802 whole entry): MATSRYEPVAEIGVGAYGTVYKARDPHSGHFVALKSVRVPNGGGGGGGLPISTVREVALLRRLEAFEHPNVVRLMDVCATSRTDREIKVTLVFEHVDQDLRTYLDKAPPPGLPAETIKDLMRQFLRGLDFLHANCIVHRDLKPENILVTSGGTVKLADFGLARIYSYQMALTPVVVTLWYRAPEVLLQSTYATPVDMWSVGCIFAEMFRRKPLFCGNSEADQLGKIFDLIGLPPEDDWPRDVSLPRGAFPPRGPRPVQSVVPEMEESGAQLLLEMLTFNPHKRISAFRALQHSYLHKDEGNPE
Procedure: as §1, §2, §3, §4, §5

CDK5 = CDK5 (Homo sapiens, UniProt Q00535); conditions: two experiments
CDK5, sequence (Q00535 whole entry): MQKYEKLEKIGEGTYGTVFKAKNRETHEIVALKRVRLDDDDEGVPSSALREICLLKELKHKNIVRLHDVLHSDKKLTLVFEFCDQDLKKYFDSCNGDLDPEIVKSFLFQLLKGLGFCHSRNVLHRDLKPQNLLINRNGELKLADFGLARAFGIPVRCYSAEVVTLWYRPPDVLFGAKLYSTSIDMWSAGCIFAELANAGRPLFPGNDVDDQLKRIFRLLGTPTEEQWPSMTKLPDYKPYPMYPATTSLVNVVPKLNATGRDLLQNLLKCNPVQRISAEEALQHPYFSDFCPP
Procedure: as §1, §2, §3, §4, §5

ERK1 = ERK1 (Homo sapiens, UniProt P27361); conditions: 10000 nM, two experiments
ERK1, sequence (P27361 whole entry): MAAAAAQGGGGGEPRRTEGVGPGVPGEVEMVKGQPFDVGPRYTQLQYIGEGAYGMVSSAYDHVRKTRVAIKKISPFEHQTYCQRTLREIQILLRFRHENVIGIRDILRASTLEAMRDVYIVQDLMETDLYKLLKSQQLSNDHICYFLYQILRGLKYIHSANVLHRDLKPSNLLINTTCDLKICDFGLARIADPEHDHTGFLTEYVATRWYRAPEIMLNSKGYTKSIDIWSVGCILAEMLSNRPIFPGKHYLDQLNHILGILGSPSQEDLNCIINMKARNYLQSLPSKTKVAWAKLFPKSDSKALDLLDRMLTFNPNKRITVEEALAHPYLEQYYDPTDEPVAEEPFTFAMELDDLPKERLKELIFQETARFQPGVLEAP
Procedure: as §1, §2, §3, §4, §5

ERK5 = ERK5 (Homo sapiens, UniProt Q13164); conditions: two experiments
ERK5, sequence (Q13164 whole entry): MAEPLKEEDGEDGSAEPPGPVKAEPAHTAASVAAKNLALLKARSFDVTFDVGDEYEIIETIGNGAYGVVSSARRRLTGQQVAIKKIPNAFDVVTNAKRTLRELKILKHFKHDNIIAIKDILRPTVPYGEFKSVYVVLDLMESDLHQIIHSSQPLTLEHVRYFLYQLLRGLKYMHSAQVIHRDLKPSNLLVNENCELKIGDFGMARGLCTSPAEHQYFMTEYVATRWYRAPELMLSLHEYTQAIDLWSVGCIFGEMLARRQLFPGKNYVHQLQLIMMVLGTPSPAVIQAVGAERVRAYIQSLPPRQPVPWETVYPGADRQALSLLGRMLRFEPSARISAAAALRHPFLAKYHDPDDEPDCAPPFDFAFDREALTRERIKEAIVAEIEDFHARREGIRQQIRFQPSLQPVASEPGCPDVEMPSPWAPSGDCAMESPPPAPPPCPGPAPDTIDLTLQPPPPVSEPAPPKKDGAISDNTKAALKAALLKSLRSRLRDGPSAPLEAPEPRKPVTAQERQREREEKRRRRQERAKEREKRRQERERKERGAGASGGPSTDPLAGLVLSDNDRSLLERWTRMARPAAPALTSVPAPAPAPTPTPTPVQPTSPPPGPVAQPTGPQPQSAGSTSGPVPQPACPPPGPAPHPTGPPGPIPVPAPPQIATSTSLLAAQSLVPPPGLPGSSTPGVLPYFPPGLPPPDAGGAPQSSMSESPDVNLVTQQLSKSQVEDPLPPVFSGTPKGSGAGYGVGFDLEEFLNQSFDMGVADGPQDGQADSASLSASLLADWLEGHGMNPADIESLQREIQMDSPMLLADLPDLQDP
Procedure: as §1, §2, §3, §4, §5

ERK8 = target: T2, ERK8 (Homo sapiens, UniProt Q8TD08); conditions: two experiments
T2 sequence (Q8TD08 1-544): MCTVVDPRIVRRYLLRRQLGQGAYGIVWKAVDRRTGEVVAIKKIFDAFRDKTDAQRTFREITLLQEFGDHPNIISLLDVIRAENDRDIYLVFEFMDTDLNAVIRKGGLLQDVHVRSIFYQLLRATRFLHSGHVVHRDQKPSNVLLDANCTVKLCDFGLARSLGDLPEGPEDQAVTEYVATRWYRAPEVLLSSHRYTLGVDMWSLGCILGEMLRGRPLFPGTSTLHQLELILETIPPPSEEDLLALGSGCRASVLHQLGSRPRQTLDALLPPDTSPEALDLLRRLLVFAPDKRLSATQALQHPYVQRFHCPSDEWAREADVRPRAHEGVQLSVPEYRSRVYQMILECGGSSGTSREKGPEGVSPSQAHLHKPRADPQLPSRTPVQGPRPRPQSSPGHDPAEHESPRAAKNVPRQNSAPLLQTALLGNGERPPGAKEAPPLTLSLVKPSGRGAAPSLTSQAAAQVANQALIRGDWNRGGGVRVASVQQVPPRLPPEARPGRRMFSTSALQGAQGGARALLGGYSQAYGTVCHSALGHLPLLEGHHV
Procedure: as §1, §2, §3, §4, §5

ERK4, sequence (P31152 whole entry): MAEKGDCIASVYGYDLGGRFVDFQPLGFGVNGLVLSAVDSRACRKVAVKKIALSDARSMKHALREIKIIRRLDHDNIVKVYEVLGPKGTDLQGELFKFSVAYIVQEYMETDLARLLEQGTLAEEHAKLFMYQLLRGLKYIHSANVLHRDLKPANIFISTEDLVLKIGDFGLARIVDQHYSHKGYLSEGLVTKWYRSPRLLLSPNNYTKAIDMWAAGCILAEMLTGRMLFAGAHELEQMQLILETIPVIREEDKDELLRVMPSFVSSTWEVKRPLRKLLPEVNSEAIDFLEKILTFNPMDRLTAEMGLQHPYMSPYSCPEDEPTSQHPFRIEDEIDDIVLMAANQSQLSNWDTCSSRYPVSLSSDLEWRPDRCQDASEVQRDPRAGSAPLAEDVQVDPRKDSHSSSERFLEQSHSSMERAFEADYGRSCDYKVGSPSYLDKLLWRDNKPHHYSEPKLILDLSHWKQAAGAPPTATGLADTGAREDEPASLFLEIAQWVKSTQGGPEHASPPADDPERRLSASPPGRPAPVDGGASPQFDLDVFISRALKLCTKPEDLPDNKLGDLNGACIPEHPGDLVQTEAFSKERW

SMILES: O=C(c1ccncc1)c1cc2ccccc2n1S(=O)(=O)c1ccccc1 [FKK5, (1-(phenylsulfonyl)-1H-indol-2-yl)(pyridin-4-yl)methanone]
- %Ctrl (ERK4; 10000 nM, 10 µM): 82 %Ctrl
- remaining binding at 10 µM (ERK4; 10000 nM, read-out: %Ctrl): 97%
- %Ctrl (ERK4; 25000 nM, 25 µM): 91 %Ctrl
- remaining binding at 25 µM (ERK4; 25000 nM, read-out: %Ctrl): 89%
- %Ctrl (IKK-alpha; 10000 nM, 10 µM): 86 %Ctrl
- remaining binding at 10 µM (IKK-alpha; 10000 nM, read-out: %Ctrl): 96%
- %Ctrl (IKK-alpha; 25000 nM, 25 µM): 100 %Ctrl
- remaining binding at 25 µM (IKK-alpha; 25000 nM, read-out: %Ctrl): 83%
- %Ctrl (ERK3; 10000 nM, 10 µM): 88 %Ctrl
- remaining binding at 10 µM (ERK3; 10000 nM, read-out: %Ctrl): 100%
- %Ctrl (ERK3; 25000 nM, 25 µM): 93 %Ctrl
- remaining binding at 25 µM (ERK3; 25000 nM, read-out: %Ctrl): 80%
- %Ctrl (ERK2; 10000 nM, 10 µM): 100 %Ctrl
- remaining binding at 10 µM (ERK2; 10000 nM, read-out: %Ctrl): 99%
- %Ctrl (ERK2; 25000 nM, 25 µM): 85 %Ctrl
- remaining binding at 25 µM (ERK2; 25000 nM, read-out: %Ctrl): 94%
- %Ctrl (GSK3B; 10000 nM, 10 µM): 92 %Ctrl
- remaining binding at 10 µM (GSK3B; 10000 nM, read-out: %Ctrl): 100%
- %Ctrl (GSK3B; 25000 nM, 25 µM): 90 %Ctrl
- remaining binding at 25 µM (GSK3B; 25000 nM, read-out: %Ctrl): 98%
- %Ctrl (CDK2; 10000 nM, 10 µM): 100 %Ctrl and 74 %Ctrl
- %Ctrl (CDK2; 25000 nM, 25 µM): 89 %Ctrl and 63 %Ctrl
- %Ctrl (GSK3A; 10000 nM, 10 µM): 92 %Ctrl
- remaining binding at 10 µM (GSK3A; 10000 nM, read-out: %Ctrl): 79%
- %Ctrl (GSK3A; 25000 nM, 25 µM): 49 %Ctrl and 77 %Ctrl
- %Ctrl (CDK4; 10000 nM, 10 µM): 98 %Ctrl
- remaining binding at 10 µM (CDK4; 10000 nM, read-out: %Ctrl): 100%
- %Ctrl (CDK4; 25000 nM, 25 µM): 90 %Ctrl
- remaining binding at 25 µM (CDK4; 25000 nM, read-out: %Ctrl): 95%
- %Ctrl (CDK5; 10000 nM, 10 µM): 77 %Ctrl and 100 %Ctrl
- %Ctrl (CDK5; 25000 nM, 25 µM): 61 %Ctrl and 100 %Ctrl
- %Ctrl (ERK1; 10 µM): 100 %Ctrl
- remaining binding at 10 µM (ERK1; read-out: %Ctrl): 86%
- %Ctrl (ERK5; 10000 nM, 10 µM): 79 %Ctrl
- remaining binding at 10 µM (ERK5; 10000 nM, read-out: %Ctrl): 94%
- %Ctrl (ERK5; 25000 nM, 25 µM): 92 %Ctrl
- remaining binding at 25 µM (ERK5; 25000 nM, read-out: %Ctrl): 100%
- %Ctrl (ERK8; 10000 nM, 10 µM): 97 %Ctrl and 71 %Ctrl
- %Ctrl (ERK8; 25000 nM, 25 µM): 65 %Ctrl
- remaining binding at 25 µM (ERK8; 25000 nM, read-out: %Ctrl): 75%

Source: PMC7136958, “Targeting the pregnane X receptor using microbial metabolite mimicry” (EMBO Molecular Medicine, 2020)
